# Measured values from PubChem BioAssay (NCI).
# “And” between values parts separate entries of the source, which are not always exact repeats. Identical values can stand only once.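 48-hour exposure; five concentrations; linearly interpolated endpoints. GI50 = concentration required for 50% inhibition of growth. At the TGI there is no net growth.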
# Legend:
# Assay in all cases: DTP human tumour cell line panel, 48 h
# 786-0 renal = system: 786-0 renal
# A498 renal = system: A498 renal
# A549 NSCLC = system: A549 NSCLC
# ACHN renal = system: ACHN renal
# CAKI-1 renal = system: CAKI-1 renal
# CCRF-CEM leukemia = system: CCRF-CEM leukemia
# COLO 205 colon = system: COLO 205 colon
# DLD-1 colon = system: DLD-1 colon
# DMS 114 small cell lung = system: DMS 114 small cell lung
# DMS 273 small cell lung = system: DMS 273 small cell lung
# EKVX NSCLC = system: EKVX NSCLC
# HCC-2998 colon = system: HCC-2998 colon
# HCT-116 colon = system: HCT-116 colon
# HCT-15 colon = system: HCT-15 colon
# HL-60(TB) leukemia = system: HL-60(TB) leukemia
# HOP-18 NSCLC = system: HOP-18 NSCLC
# HOP-62 NSCLC = system: HOP-62 NSCLC
# HT29 colon = system: HT29 colon
# IGROV1 ovarian = system: IGROV1 ovarian
# K-562 leukemia = system: K-562 leukemia
# KM12 colon = system: KM12 colon
# KM20L2 colon = system: KM20L2 colon
# LOX IMVI melanoma = system: LOX IMVI melanoma
# LXFL 529 NSCLC = system: LXFL 529 NSCLC
# M14 melanoma = system: M14 melanoma
# M19-MEL melanoma = system: M19-MEL melanoma
# MALME-3M melanoma = system: MALME-3M melanoma
# MOLT-4 leukemia = system: MOLT-4 leukemia
# NCI-H226 lung = system: NCI-H226 lung
# NCI-H23 lung = system: NCI-H23 lung
# NCI-H460 lung = system: NCI-H460 lung
# NCI-H522 lung = system: NCI-H522 lung
# OVCAR-3 ovarian = system: OVCAR-3 ovarian
# OVCAR-4 ovarian = system: OVCAR-4 ovarian
# OVCAR-5 ovarian = system: OVCAR-5 ovarian
# OVCAR-8 ovarian = system: OVCAR-8 ovarian
# RXF 393 renal = system: RXF 393 renal
# SF-268 CNS = system: SF-268 CNS
# SF-295 CNS = system: SF-295 CNS
# SK-MEL-2 melanoma = system: SK-MEL-2 melanoma
# SK-MEL-28 melanoma = system: SK-MEL-28 melanoma
# SK-MEL-5 melanoma = system: SK-MEL-5 melanoma
# SK-OV-3 ovarian = system: SK-OV-3 ovarian
# SN12C renal = system: SN12C renal
# SNB-19 CNS = system: SNB-19 CNS
# SNB-75 CNS = system: SNB-75 CNS
# SR leukemia = system: SR leukemia
# SW-620 colon = system: SW-620 colon
# TK-10 renal = system: TK-10 renal
# U251 CNS = system: U251 CNS
# UACC-257 melanoma = system: UACC-257 melanoma
# UACC-62 melanoma = system: UACC-62 melanoma
# UO-31 renal = system: UO-31 renal
# BT-549 breast = system: BT-549 breast
# DU-145 prostate = system: DU-145 prostate
# HOP-92 NSCLC = system: HOP-92 NSCLC
# HS 578T breast = system: HS 578T breast
# MDA-MB-231 breast = system: MDA-MB-231 breast
# MDA-MB-435 = system: MDA-MB-435
# MDA-N = system: MDA-N
# NCI/ADR-RES ovarian = system: NCI/ADR-RES ovarian
# PC-3 prostate = system: PC-3 prostate
# RPMI-8226 leukemia = system: RPMI-8226 leukemia
# SF-539 CNS = system: SF-539 CNS
# T-47D breast = system: T-47D breast
# MCF7 breast = system: MCF7 breast
# SNB-78 CNS = system: SNB-78 CNS
compound,measurement,setting,value
COc1ccc2cc(C(=O)c3ccccc3C(=O)O)ccc2c1,TGI,786-0 renal,> 100 µM
same,TGI,A498 renal,> 100 µM
same,TGI,A549 NSCLC,> 100 µM
same,TGI,ACHN renal,> 100 µM
same,TGI,CAKI-1 renal,> 100 µM
same,TGI,CCRF-CEM leukemia,> 100 µM
same,TGI,COLO 205 colon,> 100 µM
same,TGI,DLD-1 colon,> 100 µM
same,TGI,DMS 114 small cell lung,> 100 µM
same,TGI,DMS 273 small cell lung,> 100 µM
same,TGI,EKVX NSCLC,> 100 µM
same,TGI,HCC-2998 colon,> 100 µM
same,TGI,HCT-116 colon,> 100 µM
same,TGI,HCT-15 colon,> 100 µM
same,TGI,HL-60(TB) leukemia,> 100 µM
same,TGI,HOP-18 NSCLC,> 100 µM
same,TGI,HOP-62 NSCLC,> 100 µM
same,TGI,HT29 colon,> 100 µM
same,TGI,IGROV1 ovarian,> 100 µM
same,TGI,K-562 leukemia,> 100 µM
same,TGI,KM12 colon,> 100 µM
same,TGI,KM20L2 colon,> 100 µM
same,TGI,LOX IMVI melanoma,> 100 µM
same,TGI,LXFL 529 NSCLC,> 100 µM
same,TGI,M14 melanoma,> 100 µM
same,TGI,M19-MEL melanoma,> 100 µM
same,TGI,MALME-3M melanoma,> 100 µM
same,TGI,MOLT-4 leukemia,> 100 µM
same,TGI,NCI-H226 lung,> 100 µM
same,TGI,NCI-H23 lung,> 100 µM
same,TGI,NCI-H460 lung,> 100 µM
same,TGI,NCI-H522 lung,> 100 µM
same,TGI,OVCAR-3 ovarian,> 100 µM
same,TGI,OVCAR-4 ovarian,> 100 µM
same,TGI,OVCAR-5 ovarian,> 100 µM
same,TGI,OVCAR-8 ovarian,> 100 µM
same,TGI,RXF 393 renal,> 100 µM
same,TGI,SF-268 CNS,> 100 µM
same,TGI,SF-295 CNS,> 100 µM
same,TGI,SK-MEL-2 melanoma,> 100 µM
same,TGI,SK-MEL-28 melanoma,> 100 µM
same,TGI,SK-MEL-5 melanoma,> 100 µM
same,TGI,SK-OV-3 ovarian,> 100 µM
same,TGI,SN12C renal,> 100 µM
same,TGI,SNB-19 CNS,> 100 µM
same,TGI,SNB-75 CNS,> 100 µM
same,TGI,SR leukemia,> 100 µM
same,TGI,SW-620 colon,> 100 µM
same,TGI,TK-10 renal,> 100 µM
same,TGI,U251 CNS,> 100 µM
same,TGI,UACC-257 melanoma,> 100 µM
same,TGI,UACC-62 melanoma,> 100 µM
same,TGI,UO-31 renal,> 100 µM
CC(=O)[O-].CC(=O)[O-].[Mn+2].c1ccc(/C(=N\Nc2ccccn2)c2ccccn2)cc1,GI50,786-0 renal,0.097 µM
same,TGI,786-0 renal,13.8 µM
same,TGI,A498 renal,30.6 µM
same,TGI,A549 NSCLC,14.4 µM
same,TGI,ACHN renal,4.44 µM
same,TGI,BT-549 breast,14.4 µM
same,GI50,CAKI-1 renal,0.0393 µM
same,TGI,CAKI-1 renal,8.47 µM
same,TGI,CCRF-CEM leukemia,0.402 µM
same,TGI,DLD-1 colon,22.7 µM
same,TGI,DMS 114 small cell lung,0.0212 µM
same,TGI,DU-145 prostate,11.6 µM
same,GI50,EKVX NSCLC,0.0187 µM
same,TGI,EKVX NSCLC,19.9 µM
same,TGI,HCC-2998 colon,14.8 µM
same,TGI,HCT-116 colon,0.739 µM
same,GI50,HCT-15 colon,0.0432 µM
same,TGI,HCT-15 colon,16.1 µM
same,GI50,HL-60(TB) leukemia,0.00173 µM
same,TGI,HL-60(TB) leukemia,0.00504 µM
same,TGI,HOP-18 NSCLC,14.3 µM
same,TGI,HOP-62 NSCLC,5.69 µM
same,GI50,HOP-92 NSCLC,0.205 µM
same,TGI,HOP-92 NSCLC,11 µM
same,TGI,HS 578T breast,70.2 µM
same,GI50,HT29 colon,0.00276 µM
same,TGI,HT29 colon,11.3 µM
same,GI50,IGROV1 ovarian,0.0271 µM and 0.141 µM
same,TGI,IGROV1 ovarian,3.59 µM
same,GI50,K-562 leukemia,0.00305 µM
same,TGI,KM12 colon,13.7 µM
same,TGI,KM20L2 colon,15.8 µM
same,TGI,LOX IMVI melanoma,2.06 µM
same,TGI,LXFL 529 NSCLC,17.2 µM
same,GI50,M14 melanoma,0.0349 µM
same,TGI,M14 melanoma,1.38 µM
same,TGI,M19-MEL melanoma,14.3 µM
same,GI50,MALME-3M melanoma,0.0362 µM
same,TGI,MALME-3M melanoma,16.8 µM
same,GI50,MDA-MB-231 breast,0.0399 µM
same,TGI,MDA-MB-231 breast,16.3 µM
same,TGI,MDA-MB-435,18.7 µM
same,TGI,MDA-N,22.5 µM
same,GI50,MOLT-4 leukemia,0.00103 µM
same,TGI,MOLT-4 leukemia,1.29 µM
same,TGI,NCI-H226 lung,3 µM
same,GI50,NCI-H23 lung,0.00784 µM
same,TGI,NCI-H23 lung,16.7 µM
same,TGI,NCI-H460 lung,1.14 µM
same,GI50,NCI-H522 lung,0.0289 µM
same,TGI,NCI-H522 lung,0.277 µM
same,GI50,NCI/ADR-RES ovarian,0.0251 µM
same,TGI,NCI/ADR-RES ovarian,0.0989 µM
same,TGI,OVCAR-3 ovarian,0.00913 µM
same,TGI,OVCAR-4 ovarian,24.5 µM
same,TGI,OVCAR-8 ovarian,12.3 µM
same,TGI,PC-3 prostate,14.5 µM
same,TGI,RPMI-8226 leukemia,7.04 µM
same,TGI,RXF 393 renal,14 µM
same,TGI,SF-268 CNS,13.5 µM
same,TGI,SF-295 CNS,16.9 µM
same,TGI,SF-539 CNS,0.665 µM
same,TGI,SK-MEL-28 melanoma,19.7 µM
same,GI50,SK-MEL-5 melanoma,0.0567 µM
same,TGI,SK-MEL-5 melanoma,5.38 µM
same,GI50,SK-OV-3 ovarian,0.0509 µM
same,TGI,SK-OV-3 ovarian,17.5 µM
same,TGI,SN12C renal,6.83 µM
same,TGI,SNB-19 CNS,16.7 µM
same,TGI,SNB-75 CNS,17.7 µM
same,GI50,SW-620 colon,0.0535 µM
same,TGI,SW-620 colon,14.5 µM
same,TGI,T-47D breast,12 µM
same,TGI,TK-10 renal,54.6 µM
same,TGI,U251 CNS,8.15 µM
same,GI50,UACC-257 melanoma,0.0496 µM
same,TGI,UACC-257 melanoma,6.45 µM
same,TGI,UACC-62 melanoma,1.13 µM
same,TGI,UO-31 renal,3.88 µM
O=C(OC(C(=O)O)C(OC(=O)c1ccccc1)C(=O)O)c1ccccc1 (configuration not stated) (tested in a mixture with another compound),TGI,786-0 renal,> 100 µM
same,TGI,A498 renal,> 100 µM
same,TGI,A549 NSCLC,> 100 µM
same,TGI,ACHN renal,> 100 µM
same,TGI,BT-549 breast,27 µM
same,TGI,CAKI-1 renal,> 100 µM and 52.2 µM
same,TGI,CCRF-CEM leukemia,> 100 µM
same,TGI,COLO 205 colon,> 100 µM and 16.6 µM
same,TGI,DLD-1 colon,> 100 µM
same,TGI,DMS 273 small cell lung,> 100 µM and 14.1 µM
same,TGI,DU-145 prostate,> 100 µM
same,TGI,EKVX NSCLC,> 100 µM
same,TGI,HCC-2998 colon,> 100 µM
same,TGI,HCT-116 colon,55 µM
same,TGI,HCT-15 colon,> 100 µM
same,TGI,HL-60(TB) leukemia,> 37.8 µM
same,TGI,HOP-18 NSCLC,9.71 µM and 84.2 µM
same,TGI,HOP-62 NSCLC,> 100 µM
same,TGI,HOP-92 NSCLC,55.9 µM
same,TGI,HS 578T breast,64.8 µM
same,TGI,HT29 colon,> 100 µM
same,TGI,IGROV1 ovarian,> 100 µM
same,TGI,K-562 leukemia,> 100 µM
same,TGI,KM12 colon,> 100 µM
same,TGI,KM20L2 colon,> 100 µM and 88.7 µM
same,TGI,LOX IMVI melanoma,> 100 µM and 44.6 µM
same,TGI,M14 melanoma,> 100 µM
same,TGI,M19-MEL melanoma,> 100 µM
same,TGI,MALME-3M melanoma,> 100 µM
same,TGI,MCF7 breast,> 100 µM
same,TGI,MDA-MB-231 breast,95.2 µM
same,TGI,MDA-MB-435,62.7 µM
same,TGI,MDA-N,43 µM
same,TGI,MOLT-4 leukemia,> 100 µM
same,TGI,NCI-H226 lung,> 100 µM
same,TGI,NCI-H23 lung,> 100 µM and 84.2 µM
same,TGI,NCI-H460 lung,> 100 µM
same,TGI,NCI-H522 lung,55.4 µM
same,TGI,NCI/ADR-RES ovarian,> 100 µM
same,TGI,OVCAR-3 ovarian,> 69.1 µM
same,TGI,OVCAR-4 ovarian,> 100 µM
same,TGI,OVCAR-5 ovarian,> 100 µM
same,TGI,OVCAR-8 ovarian,> 100 µM
same,TGI,PC-3 prostate,33.5 µM
same,TGI,RPMI-8226 leukemia,> 100 µM
same,TGI,RXF 393 renal,> 100 µM
same,TGI,SF-268 CNS,> 100 µM
same,TGI,SF-295 CNS,> 100 µM
same,TGI,SF-539 CNS,> 100 µM
same,TGI,SK-MEL-2 melanoma,> 100 µM and 28.7 µM
same,TGI,SK-MEL-28 melanoma,> 100 µM
same,TGI,SK-MEL-5 melanoma,43.2 µM
same,TGI,SK-OV-3 ovarian,> 100 µM
same,TGI,SN12C renal,> 100 µM
same,TGI,SNB-19 CNS,> 100 µM
same,TGI,SNB-75 CNS,> 100 µM and 56 µM
same,TGI,SNB-78 CNS,> 100 µM
same,TGI,SR leukemia,> 100 µM
same,TGI,SW-620 colon,> 100 µM
same,TGI,T-47D breast,> 100 µM
same,TGI,TK-10 renal,> 100 µM
same,TGI,U251 CNS,> 100 µM
same,TGI,UACC-257 melanoma,> 100 µM
same,TGI,UACC-62 melanoma,> 100 µM
same,TGI,UO-31 renal,> 100 µM
